Consider one compound from patent publication US9132138B2, “Method for the treatment of multiple sclerosis” (CASI Pharmaceuticals, Inc., priority 2012, dated 2015).

Data set [1] has as its system Th17 cells. Kind of data set: Intracellular cytokine staining of in vitro differentiated Th17 cells. In kind it is cell-based, C57/BL6 mice.
Data set [2] addresses T1, GPER1 (Mus musculus, UniProt Q8BMP4).
T1 construct: Purified C57/BL6 CD4^+ T cells were preincubated with the GPER1 antagonist G15; endogenous in cells; host or cells: purified primary CD4+ T cells from C57/BL6 mice
T1 sequence (Q8BMP4 1-375): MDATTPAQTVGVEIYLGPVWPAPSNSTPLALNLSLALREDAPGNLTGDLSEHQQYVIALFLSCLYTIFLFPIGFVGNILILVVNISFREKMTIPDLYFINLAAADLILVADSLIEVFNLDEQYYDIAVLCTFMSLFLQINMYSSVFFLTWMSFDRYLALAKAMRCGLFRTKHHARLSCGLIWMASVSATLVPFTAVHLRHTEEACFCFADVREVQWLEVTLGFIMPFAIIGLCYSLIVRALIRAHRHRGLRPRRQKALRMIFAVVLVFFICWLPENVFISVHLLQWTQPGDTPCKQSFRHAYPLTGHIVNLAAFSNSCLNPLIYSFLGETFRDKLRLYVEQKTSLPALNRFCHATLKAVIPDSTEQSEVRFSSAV
The experiment in a line: GPER1 dependence: CD25/CD69 on CD4+ T cells with G15 or G1. In kind it is cell-based, C57/BL6 mice. The conditions noted are these: at 6 hours. On the procedure: FIGS. 6A and 6B show purified CD4^+ T cells that were pretreated with 2-50 μM 2ME2 and/or the GPER1 antagonist G15, and subsequently stimulated with anti-CD3/28 for 6 hours. Activation of CD4^+ T cells was assessed by CD25 and CD69 upregulation, measured by flow cytometry. US, unstimulated. Data is shown as mean±SD for triplicate determinations, and is representative of two separate experiments.
Purified C57/BL6 CD4^+ T cells were preincubated with the GPER1 antagonist G15 (100 nM, Tocris) and 2ME2 (0-50 μM), or the GPER1 agonist G1 (1-100 nM, Tocris) for 30 minutes, and activated with plate bound anti-CD3 plus soluble anti-CD28. 6 hours later, cells were harvested, stained with anti-CD4 and anti-CD25. CD25 expression was monitored on a HTS FACSCanto II (BD) and analyzed with FloJo (Treestar Inc).

Data set [3] has as its system T cells. The experiment in a line: Immunoblotting of signaling proteins in whole cell lysates of stimulated T cells. In kind it is cell-based, C57/BL6 mice. On the procedure:
(§1) FIG. 4A, purified T cells pre-treated with 2ME2 (50 μM) were stimulated with PMA/iono for the indicated times. Whole cell lysates were subjected to immunoblotting to detect the indicated proteins. FIG. 4B, nuclear lysates were analyzed by EMSA to detect DNA binding to NF-κB or AP-1. FP, free probe. FIG. 4C, purified T cells or B cells were pre-treated with vehicle (−) or 50 μM 2ME2 (+) and were stimulated with PMA/iono for 30 or 60 minutes (left), or with anti-CD3/28 or anti-IgM/CD40 for 24 hours (right). Nuclear fractions of lymphocytes were analyzed by immunoblotting to detect nuclear translocation of NFATc1. Lamin A, nuclear protein loading control. NS; non-specific band. For FIGS. 4A-4C, data are representative of at least two independent experiments. FIG. 4D, stably transfected NFAT and NF-κB Jurkat luciferase reporter cell lines were preincubated with 2ME2 for 30 minutes, and stimulated via crosslinking of anti-CD3/28 antibodies with goat anti-mouse antibodies (GaM). 5 hours later, secreted luciferase activity indicates relative transcriptional activity. Data is reported as normalized luciferase activity and is representative of 3 independent experiments.
Whole cell lysates of stimulated T cells were immunoblotted with Ab recognizing phospho-protein kinase B (AKT) (Ser473), phospho-JNK (Thr183/Tyr185, p46 and p54 Clone G9, antibody “2”), phospho-ERK (Thr202/Tyr204) or phospho-IκBα (Ser32) (NEB); phospho-JNK (Thr183/Tyr185, p54 pSAPK/JNK, clone G7, antibody “1”) or IκBα(C21) (Santa Cruz); β-tubulin (Millipore) or actin (Sigma). Infrared dye-labeled secondary Ab (anti-rabbit Alexa fluor 680, Invitrogen, and anti-mouse IR800, LICOR) were visualized with the Odyssey® scanner (LICOR).
(In general: Immunoblotting shows a protein as a band on a membrane.)

In data set [4] the test system is AP-1. The experiment in a line: EMSA of T cell nuclear extracts. The conditions noted are these: 2ME2 50 μM, PMA/iono. In kind it is cell-based, C57/BL6 mice. Here is the method: as §1
(§2) Nuclear extracts of T cells stimulated with PMA (10 ng/ml)+calcium ionophore A23187 (iono, Sigma) (50 ng/ml) for 30 or 60 minutes were prepared according to a standard protocol. […]

The subject of data set [5] is NF-κB. Kind of data set: EMSA of T cell nuclear extracts. The conditions noted are these: 2ME2 50 μM, PMA/iono. In kind it is cell-based, C57/BL6 mice. On the procedure: as §1, §2
Background: Mobility shift assays separate free from complexed probe on a gel.

Data set [6] concerns NF-κB. Kind of data set: Gaussia luciferase reporter assay in Jurkat cells. In kind it is cell-based. The conditions noted are these: anti-CD3/28, 5 hours. On the procedure:
FIG. 4A, purified T cells pre-treated with 2ME2 (50 μM) were stimulated with PMA/iono for the indicated times. Whole cell lysates were subjected to immunoblotting to detect the indicated proteins. FIG. 4B, nuclear lysates were analyzed by EMSA to detect DNA binding to NF-κB or AP-1. FP, free probe. FIG. 4C, purified T cells or B cells were pre-treated with vehicle (−) or 50 μM 2ME2 (+) and were stimulated with PMA/iono for 30 or 60 minutes (left), or with anti-CD3/28 or anti-IgM/CD40 for 24 hours (right). Nuclear fractions of lymphocytes were analyzed by immunoblotting to detect nuclear translocation of NFATc1. Lamin A, nuclear protein loading control. NS; non-specific band. […]
Luciferase Assays were performed using Jurkat cells harboring a stably integrated Gaussia-luciferase reporter gene under the control of NF-κB or NFAT binding sites (Termed NFAT/NF-κB-GLuc reporter Jurkat). Gaussia luciferase contains a secretion peptide sequence mediating quantitative secretion of active enzyme into the surrounding medium. […] Luciferase activity was measured in 96-well plates using a Orion L microplate Luminometer (Berthold Detection Systems) with an integration time of 3.0 seconds. In parallel, cell viability was determined using the CellTiter-Glo® Luminescent Cell Viability Assay (Promega) and normalized Gluc activity was calculated as the ratio between Gluc activity and cell viability counts.
A general note: Reporter assays use an easily measured gene product as a stand-in for the process of interest.

For data set [7] the following is noted: oral 2ME2, mice and humans; cited from earlier work.
The mark [8] stands for this setting: T cells activated with anti-CD3/28.

As a reminder, the bioavailability is the share of a dose that reaches the circulation, judged against a reference dose that is usually intravenous. For `COc1cc2c(cc1O)CC[C@@H]1[C@@H]2CC[C@]2(C)[C@@H](O)CC[C@@H]12` [2ME2, 2-Methoxyestradiol], in data set [1] (50 μM 2ME2, PMA/iono 6 hours, vehicle 23.2%), the “Th17 cells positive for IL-17” value turned out to be 7.3%. Also, the “production of IFNγ in Th17 cells (positive cells)” value in data set [1] (PMA/iono 6 hours, vehicle 9.1%) stood at 7.3%. In data set [2], the cell viability entry is reported as “Neither 2ME2, G1 nor G15 affected cell viability”. Moreover, in data set [3] (2ME2 50 μM, PMA/iono), the AKT phosphorylation entry is given as “did not inhibit”; the ERK phosphorylation entry was “did not inhibit”; the “IκBα phosphorylation and degradation” value is “normal”. The “phosphorylation of JNK 1 and 2” value in data set [3] (2ME2 50 μM, present even in the absence of stimulation) is “modest hyper-phosphorylation”. Further, in data set [3] (setting [8]), the ERK phosphorylation result is “did not inhibit”, the JNK phosphorylation entry is listed as “did not inhibit” and the “NF-κB p65 phosphorylation” value is recorded as “did not inhibit”. Besides, in data set [4], the “AP-1 binding to DNA” value is recorded as “modest increase”. Besides, in data set [5], the “binding of NF-κB to DNA” value is given as “normal”. Besides, the “NF-κB-dependent transcriptional activity (normalized luciferase activity)” value in data set [6] was “no effect”. The bioavailability in data set [7] is given as 1.5%.
